Source: ChEMBL document CHEMBL1144057, “Guiaflavine, a new bisindole quaternary alkaloid from the stem bark of Strychnos guianensis” (J Nat Prod, 1999)

Tested on: Mus musculus
Assay: Toxicity in ip dosed NMRI mouse
Format: organism-based
Conditions: in vivo

CCc1c[n+]2c(cc1C1=CN3c4ccccc4[C@@]45CC[N+]6(C)CC7=CCO[C@@H]1[C@@H]([C@H]34)[C@H]7C[C@@H]56)-c1[nH]c3cccc(OC)c3c1CC2.[Cl-].[Cl-] (stereo partly specified) [GUIAFLAVINE]
LD100: 100 mg/kg
